Patent US20250255867A1 (Kadmon Corporation, LLC, priority 2022, published 2025)

Settings: Cohort 1 200 mg QD
Method: All responses were assessed by the investigators.
Reported Adverse Events. […] All-cause mortality data collected during the study were assessed for all enrolled participants. Disease progression related death was not reported as AE.
Number of Participants With Treatment-emergent Adverse Events (TEAEs), and Treatment-emergent Serious Adverse Events (TESAEs). […] TEAEs included both SAEs and non-SAEs. […] Analysis was performed on safety population which included all participants who received at least 1 dose of study medication.

Structure (SMILES): CC(C)NC(=O)COc1cccc(-c2nc(Nc3ccc4[nH]ncc4c3)c3ccccc3n2)c1 [Belumosudil, 2-{3-[4-(1H-indazol-5-ylamino)-2-quinazolinyl]phenoxy}-N-(propan-2-yl) acetamide]
- Diarrhoea: Affected/At Risk: 6/17
- Diarrhoea: Affected/At Risk (%): (35.29%)
- Dizziness: # Events: 0
- Dizziness: Affected/At Risk: 0/17
- Dizziness: Affected/At Risk (%): (0%)
- Drug eruption: # Events: 0
- Drug eruption: Affected/At Risk: 0/17
- Drug eruption: Affected/At Risk (%): (0%)
- Dry eye: # Events: 3
- Dry eye: Affected/At Risk: 2/17
- Dry eye: Affected/At Risk (%): (11.76%)
- Dry skin: # Events: 1
- Dry skin: Affected/At Risk: 1/17
- Dry skin: Affected/At Risk (%): (5.88%)
- Dyspepsia: # Events: 0
- Dyspepsia: Affected/At Risk: 0/17
- Dyspepsia: Affected/At Risk (%): (0%)
- Dysphagia: # Events: 1
- Dysphagia: Affected/At Risk: 1/17
- Dysphagia: Affected/At Risk (%): (5.88%)
- Dyspnoea exertional: # Events: 1
- Dyspnoea exertional: Affected/At Risk: 1/17
- Dyspnoea exertional: Affected/At Risk (%): (5.88%)
- Dyspnoea: # Events: 2
- Dyspnoea: Affected/At Risk: 2/17
- Dyspnoea: Affected/At Risk (%): (11.76%)
- Embolism: # Events: 1
- Embolism: Affected/At Risk: 1/17
- Embolism: Affected/At Risk (%): (5.88%)
- Enamel anomaly: # Events: 0
- Enamel anomaly: Affected/At Risk: 0/17
- Enamel anomaly: Affected/At Risk (%): (0%)
- Epidural lipomatosis: # Events: 1
- Epidural lipomatosis: Affected/At Risk: 1/17
- Epidural lipomatosis: Affected/At Risk (%): (5.88%)
- Epstein-Barr virus infection: # Events: 1
- Epstein-Barr virus infection: Affected/At Risk: 1/17
- Epstein-Barr virus infection: Affected/At Risk (%): (5.88%)
- Erectile dysfunction: # Events: 4
- Erectile dysfunction: Affected/At Risk: 2/17
- Erectile dysfunction: Affected/At Risk (%): (11.76%)
- Eye irritation: # Events: 1
- Eye irritation: Affected/At Risk: 1/17
- Eye irritation: Affected/At Risk (%): (5.88%)
- Eye pain: # Events: 0
- Eye pain: Affected/At Risk: 0/17
- Eye pain: Affected/At Risk (%): (0%)
- Eye pruritus: # Events: 0
- Eye pruritus: Affected/At Risk: 0/17
- Eye pruritus: Affected/At Risk (%): (0%)
- Fall: # Events: 2
- Fall: Affected/At Risk: 2/17
- Fall: Affected/At Risk (%): (11.76%)
- Fatigue: # Events: 7
- Fatigue: Affected/At Risk: 6/17
- Fatigue: Affected/At Risk (%): (35.29%)
- Flatulence: # Events: 0
- Flatulence: Affected/At Risk: 0/17
- Flatulence: Affected/At Risk (%): (0%)
- Flushing: # Events: 0
- Flushing: Affected/At Risk: 0/17
- Flushing: Affected/At Risk (%): (0%)
- Fungal infection: # Events: 1
- Fungal infection: Affected/At Risk: 1/17
- Fungal infection: Affected/At Risk (%): (5.88%)
- Gamma-glutamyltransferase increased: # Events: 9
- Gamma-glutamyltransferase increased: Affected/At Risk: 4/17
- Gamma-glutamyltransferase increased: Affected/At Risk (%): (23.53%)
- Gastric ulcer: # Events: 0
- Gastric ulcer: Affected/At Risk: 0/17
- Gastric ulcer: Affected/At Risk (%): (0%)
- Gastrooesophageal reflux disease: # Events: 2
- Gastrooesophageal reflux disease: Affected/At Risk: 2/17
- Gastrooesophageal reflux disease: Affected/At Risk (%): (11.76%)
- Generalised oedema: # Events: 1
- Generalised oedema: Affected/At Risk: 1/17
- Generalised oedema: Affected/At Risk (%): (5.88%)
- Genital infection fungal: # Events: 0
- Genital infection fungal: Affected/At Risk: 0/17
- Genital infection fungal: Affected/At Risk (%): (0%)
- Glaucoma: # Events: 0
- Glaucoma: Affected/At Risk: 0/17
- Glaucoma: Affected/At Risk (%): (0%)
- Glucose urine present: # Events: 3
- Glucose urine present: Affected/At Risk: 2/17
- Glucose urine present: Affected/At Risk (%): (11.76%)
- Graft versus host disease in gastrointestinal tract: # Events: 1
- Graft versus host disease in gastrointestinal tract: Affected/At Risk: 1/17
- Graft versus host disease in gastrointestinal tract: Affected/At Risk (%): (5.88%)
- Gynaecomastia: # Events: 0
- Gynaecomastia: Affected/At Risk: 0/17
- Gynaecomastia: Affected/At Risk (%): (0%)
- Haematuria: # Events: 1
- Haematuria: Affected/At Risk: 1/17
- Haematuria: Affected/At Risk (%): (5.88%)
- Hair growth abnormal: # Events: 1
- Hair growth abnormal: Affected/At Risk: 1/17
- Hair growth abnormal: Affected/At Risk (%): (5.88%)
- Headache: # Events: 4
- Headache: Affected/At Risk: 4/17
- Headache: Affected/At Risk (%): (23.53%)
- Hodgkin's disease recurrent: # Events: 1
- Hodgkin's disease recurrent: Affected/At Risk: 1/17
- Hodgkin's disease recurrent: Affected/At Risk (%): (5.88%)
- Hordeolum: # Events: 1
- Hordeolum: Affected/At Risk: 1/17
- Hordeolum: Affected/At Risk (%): (5.88%)
- Hot flush: # Events: 1
- Hot flush: Affected/At Risk: 1/17
- Hot flush: Affected/At Risk (%): (5.88%)
- Hyperglycemia: # Events: 2
- Hyperglycemia: Affected/At Risk: 2/17
- Hyperglycemia: Affected/At Risk (%): (11.76%)
- Hyperhidrosis: # Events: 0
- Hyperhidrosis: Affected/At Risk: 0/17
- Hyperhidrosis: Affected/At Risk (%): (0%)
- Hyperkalaemia: # Events: 7
- Hyperkalaemia: Affected/At Risk: 3/17
- Hyperkalaemia: Affected/At Risk (%): (17.65%)
- Hypertension: # Events: 8
- Hypertension: Affected/At Risk: 5/17
- Hypertension: Affected/At Risk (%): (29.41%)
- Hyperthyroidism: # Events: 0
- Hyperthyroidism: Affected/At Risk: 0/17
- Hyperthyroidism: Affected/At Risk (%): (0%)
- Hypertriglyceridaemia: # Events: 0
- Hypertriglyceridaemia: Affected/At Risk: 0/17
- Hypertriglyceridaemia: Affected/At Risk (%): (0%)
- Hyperuricaemia: # Events: 6
- Hyperuricaemia: Affected/At Risk: 1/17
- Hyperuricaemia: Affected/At Risk (%): (5.88%)
- Hypoaesthesia: # Events: 2
- Hypoaesthesia: Affected/At Risk: 1/17
- Hypoaesthesia: Affected/At Risk (%): (5.88%)
- Hypocalcaemia: # Events: 0
- Hypocalcaemia: Affected/At Risk: 0/17
- Hypocalcaemia: Affected/At Risk (%): (0%)
